Data on nine molecules can be found in patent publication US10251959B2, “Oligomer-beta blocker conjugates” (Nektar Therapeutics, priority 2007, dated 2019).

The target of assay [1] is T1, adrenergic, beta-2 (human) (Homo sapiens, UniProt P07550).
T1 construct: endogenous in cells; host or cells: HL-60 (human promyelocytic leukemia cells)
The assay can be described thus: adrenergic, beta-2 (human) binding assay; HL-60 cells, isoproterenol, EIA read-out. In kind it is cell-based. As to conditions: 100 nM isoproterenol, 20 minutes at room temperature. The procedure:
With respect to beta-2 adrenergic activity, for example, human promyelocytic leukemia cells (HL-60 cells) can be washed and added to physiological buffer. […] Thereafter, 100 nM (final) isoproterenol is added. After twenty minutes at room temperature, cells are centrifuged, buffer removed, and 0.1M HCl is added to stop reaction. […] Pharmacol. 27(1):33-54.
Briefly, human promyelocytic leukemia cells (HL-60 cells) were washed and physiological buffer was added before analysis. To this was added 300 μM IBMX to inhibit phosphodiesterase. […] Cells were then centrifuged, buffer removed and 0.1 M HCL was added to stop the reaction.

Assay [2] addresses T2, adrenergic, beta-1 (human) (Homo sapiens, UniProt P08588).
T2 construct: expressed in transfected cells; host or cells: Sf9 insect cells (membranes)
The assay can be described thus: adrenergic, beta-1 (human) binding assay; human recombinant Sf9 cells, membranes, Europium time-resolved fluorescence. In kind it is biochemical. The settings on record: Table 2, 30 nM isoproterenol. How it is done: The compound of interest is added to the membrane and then incubated for ten minutes. Thereafter, 100 nM GTP-Eu is added and incubated for an additional thirty minutes. Europium fluorescence is measured in a time-resolved fluorometer in order to ascertain any functional antagonist activity at the adrenergic beta 1 site. […] Briefly, Human recombinant Sf9 cells were used, wherein reactions were carried out in 50 mM HEPES [pH 7.4] containing 3 mM MgCl2, 0.1 μM GDP, 10 μm/mL Saoonin, and 1 mM DTT (dithiothreitol). The compound of interest was added to the membrane and then incubated for ten minutes at room temperature. Then, 30 nM of isoproterenol [final] to each well was added and allowed to incubate for an additional 30 minutes. Europium fluorescence was measured in a time-resolved fluorometer in order to ascertain any functional antagonist activity at the adrenergic beta-1 site. […] Briefly, Human recombinant Sf9 cells were used, wherein reactions were carried out in 50 mM HEPES [pH 7.4] containing 3 mM MgCl2, 0.1 μM GDP, 10 μm/mL Saoonin, and 1 mM DTT (dithiothreitol). The compound of interest was added to the membrane and then incubated for ten minutes at room temperature. Then, 30 nM of isoproterenol [final] to each well was added and allowed to incubate for an additional 30 minutes. Europium fluorescence was measured in a time-resolved fluorometer in order to ascertain any functional antagonist activity at the adrenergic beta-1 site.

T2 sequence (P08588 whole entry): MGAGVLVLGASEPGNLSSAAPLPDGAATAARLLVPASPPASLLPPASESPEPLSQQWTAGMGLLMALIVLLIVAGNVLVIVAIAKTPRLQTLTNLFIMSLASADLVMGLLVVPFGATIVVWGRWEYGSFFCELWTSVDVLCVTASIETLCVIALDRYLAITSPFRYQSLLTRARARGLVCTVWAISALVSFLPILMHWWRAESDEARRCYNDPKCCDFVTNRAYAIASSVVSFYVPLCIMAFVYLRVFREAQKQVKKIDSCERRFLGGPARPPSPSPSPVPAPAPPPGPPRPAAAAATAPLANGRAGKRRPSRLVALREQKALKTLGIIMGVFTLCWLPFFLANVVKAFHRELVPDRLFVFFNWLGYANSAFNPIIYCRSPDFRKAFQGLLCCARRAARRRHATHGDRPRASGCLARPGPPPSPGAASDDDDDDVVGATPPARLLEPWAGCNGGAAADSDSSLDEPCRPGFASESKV
T1 sequence (P07550 whole entry): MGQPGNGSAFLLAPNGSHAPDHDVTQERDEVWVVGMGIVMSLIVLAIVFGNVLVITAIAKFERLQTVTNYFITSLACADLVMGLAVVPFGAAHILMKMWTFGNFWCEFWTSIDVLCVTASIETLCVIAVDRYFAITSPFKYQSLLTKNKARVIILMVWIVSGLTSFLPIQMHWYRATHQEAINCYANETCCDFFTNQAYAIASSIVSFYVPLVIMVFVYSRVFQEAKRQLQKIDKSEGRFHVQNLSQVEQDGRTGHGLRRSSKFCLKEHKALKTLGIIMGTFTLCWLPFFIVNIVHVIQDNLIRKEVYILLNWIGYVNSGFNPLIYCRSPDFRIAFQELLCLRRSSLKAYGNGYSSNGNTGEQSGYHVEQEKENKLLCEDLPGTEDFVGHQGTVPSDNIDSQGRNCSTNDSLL

A word on the IC50: it is the point on the concentration scale where inhibition reaches its midpoint. For the molecule `COCCOCCOCCOCCOCCOCCOCCOCCOC(CNC(C)(C)C)COc1nsnc1N1CCOCC1` (stereo not shown) [Timolol Compound D], in assay [1] (Table 3, 300 μM IBMX), the IC50 was found to be 629 nM.

Regarding `COCCOCCOCCOCC(=O)O[C@@H](CNC(C)C)COc1cccc2ccccc12` [Propranolol Conjugate F], the IC50 in assay [1] (Table 1, 300 μM IBMX) is 1660 nM; in assay [2], 5390 nM.

Consider `COCCOCCOCCOCCOCCOCCOCCOCC(=O)O[C@@H](CNC(C)C)COc1cccc2ccccc12` [Propranolol Conjugate E], for which the IC50 in assay [1] (Table 1, 300 μM IBMX) was found to be 1680 nM.

Turning to `COCCOCCOCCOCCOCCOCCOCCOC(CNC(C)(C)C)COc1nsnc1N1CCOCC1` (stereo not shown) [Timolol Compound C], the IC50 in assay [1] (Table 3, 300 μM IBMX) worked out at 603 nM.

In the case of `COCCOCCOCCOCCOCCOCCOCCO[C@@H](CNC(C)C)COc1cccc2ccccc12` [Propranolol Conjugate D], the IC50 in assay [1] (Table 1, 300 μM IBMX) is 378 nM.

As to `COCCOCCOCCO[C@@H](CNC(C)C)COc1cccc2ccccc12` [Propranolol Conjugate A], the IC50 in assay [1] (Table 1, 300 μM IBMX) turned out to be 112 nM; in assay [2] it was 1790 nM.

On to `COCCOCCOCCOCCOCCO[C@@H](CNC(C)C)COc1cccc2ccccc12` [Propranolol Conjugate C], for which the IC50 amounted to 339 nM in assay [1] (Table 1, 300 μM IBMX) and 4960 nM in assay [2].

In the case of `COCCOCCOCCOCC(=O)O[C@H](COc1cccc2ccccc12)CN(C(=O)COCCOCCOCCOC)C(C)C` [Propranolol Conjugate B], the IC50 worked out at 13200 nM in assay [1] (Table 1, 300 μM IBMX) and 3810 nM in assay [2].

With `COCCOCCOCCOCCOCCOC(CNC(C)(C)C)COc1nsnc1N1CCOCC1` (stereo not shown) [Timolol Compound B], the IC50 in assay [1] (Table 3, 300 μM IBMX) was determined as 1290 nM.
